{
  "source": "ChEMBL document CHEMBL1150995",
  "about": "“DNA cleavage by photoexcited diazoarenes” (Bioorg Med Chem Lett, 1997)",
  "key": {"[1]": {"experiment": "Inhibitory effect of 2-Propanol (100 uM) on light induced nuclease activity was determined"}, "[2]": {"experiment": "Inhibitory effect of DMSO (0.2 M) on light induced nuclease activity was determined"}, "[3]": {"experiment": "Inhibitory effect of triphenylphosphine (100 uM) on light induced nuclease activity was determined"}, "[4]": {"experiment": "Inhibitory effect of Mannitol (100 mM) on light induced nuclease activity was determined"}, "[5]": {"experiment": "Inhibitory effect of D2O on light induced nuclease activity was determined", "settings": "concentration not given here"}, "[6]": {"experiment": "Inhibitory effect of SOD (100 ng) on light induced nuclease activity was determined"}, "[7]": {"experiment": "Inhibitory effect of cumene (100 uM) on light induced nuclease activity was determined"}, "[8]": {"experiment": "Inhibitory effect of DABCO (0.2 M) on light induced nuclease activity was determined"}},
  "data": [
    {"compound": "[N-]=[N+]=c1c2ccccc2oc2ccccc12", "values": [
      {"measurement": "inhibition", "setting": "[1]", "value": 30, "unit": "%"},
      {"measurement": "inhibition", "setting": "[2]", "value": 5, "unit": "%"},
      {"measurement": "inhibition", "setting": "[3]", "value": 35, "unit": "%"},
      {"measurement": "inhibition", "setting": "[4]", "value": 3, "unit": "%"},
      {"measurement": "inhibition", "setting": "[5]", "value": 8, "unit": "%"},
      {"measurement": "inhibition", "setting": "[6]", "value": 8, "unit": "%"},
      {"measurement": "inhibition", "setting": "[7]", "value": 58, "unit": "%"},
      {"measurement": "inhibition", "setting": "[8]", "value": 38, "unit": "%"}
    ]},
    {"compound": "[N-]=[N+]=C1c2ccccc2C(=O)c2ccccc21", "values": [
      {"measurement": "inhibition", "setting": "[1]", "value": 25, "unit": "%"},
      {"measurement": "inhibition", "setting": "[2]", "value": 12, "unit": "%"},
      {"measurement": "inhibition", "setting": "[3]", "value": 35, "unit": "%"},
      {"measurement": "inhibition", "setting": "[4]", "value": 5, "unit": "%"},
      {"measurement": "inhibition", "setting": "[5]", "value": 10, "unit": "%"},
      {"measurement": "inhibition", "setting": "[6]", "value": 10, "unit": "%"},
      {"measurement": "inhibition", "setting": "[7]", "value": 39, "unit": "%"},
      {"measurement": "inhibition", "setting": "[8]", "value": 30, "unit": "%"}
    ]}
  ]
}
